Consider 2 compounds from ChEMBL document CHEMBL1150587, “Evaluation of the potential cancer chemotherapeutic efficacy of natural product isolates employing in vivo hollow fiber tests” (J Nat Prod, 2002).

Activity calls are given as the source filed them. The calls are words filed in the database; no cut-off is given here. Where only a bound is given, the exact number is not on record here.

One data set concerns LNCaP. The data set can be described thus: Cytotoxicity against human LNCAP cells after 72 hrs by SRB assay. Type of data set: functional, cell-based. Background: Sulforhodamine B stains cellular protein and so reports cell mass.
The subject of data set [1] is Mus musculus. Description: Toxicity in tumor cell implanted NCr nu/nu mouse assessed as body weight change at 8.78 umol/kg, ip administered from day 3 to 6 after implantation measured on day 7. Type of data set: organism-based. Conditions: in vivo.
Data set [2] deals with Mus musculus. The data set can be described thus: Toxicity in NCr nu/nu mouse subcutaneously implanted with human KB cells assessed as mortality at 17.6 umol/kg, ip administered on day 10, 13, 16, 20 of implantation. Type of data set: organism-based. The conditions noted are these: in vivo.
Data set [3] deals with Mus musculus. The data set can be described thus: Toxicity in tumor cell implanted NCr nu/nu mouse assessed as body weight change at 4.39 umol/kg, ip administered from day 3 to 6 after implantation measured on day 7. Type of data set: organism-based. Conditions: in vivo.
Data set [4] concerns KB. Description: Growth inhibition of human KB cells implanted intraperitoneally to NCr nu/nu mouse at 4.39 to 35.1 umol/kg, ip administered from day 3 to 6 after implantation measured on day 7 by MTT-based hollow-fiber test. Type of data set: functional.
Data set [5] relates to KB. The data set can be described thus: Growth inhibition of human KB cells implanted subcutaneously to NCr nu/nu mouse assessed as tumor size at 4.39 to 28.5 umol/kg, ip administered on day 10, 13, 16, 20 of implantation. Type of data set: functional, organism-based.
Data set [6] deals with Mus musculus. Description: Toxicity in NCr nu/nu mouse subcutaneously implanted with human KB cells assessed as mortality at 4.39 umol/kg, ip administered on day 10, 13, 16, 20 of implantation. Type of data set: organism-based. Conditions: in vivo.
The test system of data set [7] is SW626. The data set can be described thus: Growth inhibition of human SW626 cells implanted intraperitoneally to NCr nu/nu mouse at 4.39 to 35.1 umol/kg, ip administered from day 3 to 6 after implantation measured on day 7 by MTT-based hollow-fiber test. Type of data set: functional.
Data set [8] can be described thus: Growth inhibition of human KBV1 cells implanted intraperitoneally to NCr nu/nu mouse at 4.39 to 35.1 umol/kg, ip administered from day 3 to 6 after implantation measured on day 7 by MTT-based hollow-fiber test. Type of data set: functional, KB-V1.
The test system of data set [9] is Mus musculus. Description: Toxicity in tumor cell implanted NCr nu/nu mouse assessed as body weight change at 35.1 umol/kg, ip administered from day 3 to 6 after implantation measured on day 7. Type of data set: organism-based. The conditions noted are these: in vivo.
The test system of data set [10] is Mus musculus. The data set can be described thus: Toxicity in NCr nu/nu mouse subcutaneously implanted with human KB cells assessed as mortality at 8.78 umol/kg, ip administered on day 10, 13, 16, 20 of implantation. Type of data set: organism-based. Conditions: in vivo.
The next data set has as its system P388. Description: Cytotoxicity against mouse P388 cells after 72 hrs by SRB assay. Type of data set: functional, cell-based. Conditions: P388, 72 h.
Data set [11] concerns Mus musculus. The data set can be described thus: Toxicity in tumor cell implanted NCr nu/nu mouse assessed as body weight change at 17.6 umol/kg, ip administered from day 3 to 6 after implantation measured on day 7. The conditions noted are these: in vivo. Type of data set: organism-based.
Data set [12] relates to KB. Description: Cytotoxicity against human KB cells after 72 hrs by SRB assay. Type of data set: functional, cell-based.
The test system of a further data set is SK-MEL-2. The data set can be described thus: Cytotoxicity against human SK-MEL-2 cells after 72 hrs by SRB assay. Type of data set: functional, cell-based. Conditions: SK-MEL-2, 72 h.
Data set [13] has as its system Mus musculus. The data set can be described thus: Toxicity in NCr nu/nu mouse subcutaneously implanted with human KB cells assessed as change in body weight at 8.78 umol/kg, ip administered on day 10, 13, 16, 20 of implantation. Type of data set: organism-based. The conditions noted are these: in vivo.
The nature of data set [14]: Growth inhibition of human KBV1 cells implanted subcutaneously to NCr nu/nu mouse at 4.39 to 35.1 umol/kg, ip administered from day 3 to 6 after implantation measured on day 7 by MTT-based hollow-fiber test. Type of data set: functional, KB-V1.
Data set [15] concerns SW626. Description: Cytotoxicity against human SW626 cells after 72 hrs by SRB assay. Type of data set: functional, cell-based. The conditions noted are these: SW626, 72 h.
Data set [16] deals with SW626. The data set can be described thus: Growth inhibition of human SW626 cells implanted subcutaneously to NCr nu/nu mouse at 4.39 to 35.1 umol/kg, ip administered from day 3 to 6 after implantation measured on day 7 by MTT-based hollow-fiber test. Type of data set: functional.
Another data set deals with Lu1. The data set can be described thus: Cytotoxicity against human Lu1 cells after 72 hrs by SRB assay. Type of data set: functional, cell-based. The conditions noted are these: Lu1, 72 h.
Data set [17] relates to Mus musculus. The data set can be described thus: Toxicity in NCr nu/nu mouse subcutaneously implanted with human KB cells assessed as change in body weight at 4.39 umol/kg, ip administered on day 10, 13, 16, 20 of implantation. Type of data set: organism-based. The conditions noted are these: in vivo.
The subject of data set [18] is KB. Description: Growth inhibition of human KB cells implanted subcutaneously to NCr nu/nu mouse at 4.39 to 35.1 umol/kg, ip administered from day 3 to 6 after implantation measured on day 7 by MTT-based hollow-fiber test. Type of data set: functional.
A further data set deals with Col2. Description: Cytotoxicity against human Col2 cells after 72 hrs by SRB assay. Type of data set: functional, cell-based. Conditions: Col2, 72 h.
Data set [19] deals with Mus musculus. Description: Toxicity in NCr nu/nu mouse subcutaneously implanted with human KB cells assessed as change in body weight at 17.6 umol/kg, ip administered on day 10, 13, 16, 20 of implantation. Type of data set: organism-based. Conditions: in vivo.
Data set [20] in a line: Cytotoxicity against human KBV1 cells after 72 hrs by SRB assay. Type of data set: functional, cell-based. The conditions noted are these: KB-V1, 72 h.
For data set [21], the system named is Mus musculus. Description: Toxicity in NCr nu/nu mouse subcutaneously implanted with human KB cells assessed as change in body weight at 35.1 umol/kg, ip administered on day 10, 13, 16, 20 of implantation. Type of data set: organism-based. Conditions: in vivo.
In data set [22] the test system is SW626. The data set can be described thus: Growth inhibition of human SW626 cells implanted intraperitoneally to NCr nu/nu mouse at 128 to 512 umol/kg, ip administered from day 3 to 6 after implantation measured on day 7 by MTT-based hollow-fiber test. Type of data set: functional.
In data set [23] the test system is Mus musculus. Description: Toxicity in NCr nu/nu mouse subcutaneously implanted with human SW626 cells assessed as body weight change at 128 to 512 umol/kg, ip administered from day 3 to 6 after implantation measured on day 7. Type of data set: organism-based. Conditions: in vivo.
For a further data set, the system named is MCF7. The data set can be described thus: Cytotoxicity against human MCF7 cells after 72 hrs by SRB assay. The conditions noted are these: MCF7, 72 h.
Data set [24] concerns SW626. Description: Growth inhibition of human SW626 cells implanted subcutaneously to NCr nu/nu mouse at 128 to 512 umol/kg, ip administered from day 3 to 6 after implantation measured on day 7 by MTT-based hollow-fiber test. Type of data set: functional.
Data set [25] in a line: Cytotoxicity against human BC1 cells after 72 hrs by SRB assay. The conditions noted are these: BC1, 72 h.

On to `CC(=O)O[C@H]1C(=O)[C@@]2(C)[C@H]([C@H](OC(=O)c3ccccc3)[C@]3(O)C[C@H](OC(=O)[C@H](O)[C@@H](NC(=O)c4ccccc4)c4ccccc4)C(C)=C1C3(C)C)[C@]1(OC(C)=O)CO[C@@H]1C[C@@H]2O` [PACLITAXEL], for which the IC50 in the data set with LNCaP came to 0.02 µM; in the data set on P388, 0.02 µM; with KB [12], 0.02 µM; with SK-MEL-2, 0.07 µM; in the data set with SW626 [15], 1e-05 µM; in the data set with Lu1 it was 0.01 µM. Also, the IC50 was 0.02 µM in the data set on Col2 and greater than 2.3 µM in [20]. Also, the Activity with Mus musculus [1] was 1.4 g; in the data set on Mus musculus [2] it was “Non-toxic”; in the data set with Mus musculus [3] it was 1.7 g; in the data set on Mus musculus [6] it was “Non-toxic”; with Mus musculus [9], 1.1 g; with Mus musculus [10], “Non-toxic”. The Activity amounted to 1.8 g in the data set with Mus musculus [11]; 6.7% in the data set on Mus musculus [13]; 9.4% in the data set on Mus musculus [17]; 8.2% in the data set on Mus musculus [19]; 7.8% in the data set on Mus musculus [21]. For the same compound, the “inhibition (INH)” value is recorded as 70.2% with KB [4]; 98.7% in the data set on SW626 [7]; 0% in data set [8]; 13.1% in data set [14]; 0% with SW626 [16]; 19.5% in the data set with KB [18]. Besides, in the data set with KB [5], the result was inactive.

In the case of `CC1(C)CCC2=C(O1)C(=O)c1ccccc1C2=O` [ALPHA-LAPACHONE], the IC50 in the data set with LNCaP is 29.3 µM; in the data set on P388, 0.8 µM; in the data set on MCF7, 38 µM; in the data set with KB [12], 53.7 µM; in the data set on SK-MEL-2, 7.9 µM; with SW626 [15], 12.4 µM. Moreover, the IC50 in the data set on Lu1 amounted to 21.9 µM; in the data set with Col2 it was 40.9 µM; in data set [25] it was 27.7 µM; in [20] it was 34.3 µM. Also, the “inhibition (INH)” value worked out at 0% in the data set with SW626 [22] and 10.3% with SW626 [24]. Besides, the Activity in the data set on Mus musculus [23] is 0.3 g.

Broadly, the IC50 is the concentration that gives 50% inhibition. A higher IC50 goes with weaker potency in that assay.
